Substitutions are numbered along the chain they refer to. Names may count otherwise. “Also recorded” adds a separate entry of the source.

Format in all cases: cell-based
Test [1] deals with bone marrow-derived macrophages (BMDM). As to the kind of experiment: IL-1β cytokine release ELISA. Conditions: short-term LPS stimulation (5 minutes), mouse BMDM. The protocol:
Cytokine Release. LPS-stimulated, IL-1β cytokine release from bone-marrow monocyte-derived macrophages ([…] mice) was measured using the QUANTIKINE® ELISA kit (R&D Systems). Cells were seeded in 96-well plates and pre-treated for 10 minutes with medium, 10 μM U73122, or 10 μM wortmannin. LPS (100 ng/μL, Invivogen) was then added to the cells for 5 minutes and the cell-free supernatants were recovered and subjected to the ELISA kit according to the manufacturer's instructions. The concentration of the samples in 96-well plates was measured via absorbance at 450 nm using an Epoch Microplate Spectrophotometer (Biotek Instruments). The OD values in six technical repeats each from a total of three mice (n=18) were converted into the […] levels reported via a power law fit of a serial dilution calibration curve.

For test [2], the system named is Hela cells. The experiment in a line: PhoDer activation after pretreatment with PI3K/PLC modulators, calcium flare dynamics. The protocol: (§1) Cell Culture. HeLa and RAW264.7 cells were maintained in Dulbecco's Modified Eagle Medium (DMEM) medium supplemented with 10% fetal bovine serum (FBS) and 1% penicillin and streptomycin. Cells were transfected at 50%-70% confluency using LIPOFECTAMINE® 2000 transfection reagent and incubated for 24 hours before imaging. Cells were never serum-starved. To examine endogenous inflammatory activation, RAW264.7 cells were treated with 100 ng/μL lipopolysaccharide (LPS, Invivogen) at the beginning of each experiment. Pretreatment to bias membrane composition by phosphatidylinositol 4,5-bisphosphate (PIP2) modifying enzymes was performed by incubating Hela cells in Hanks' Balanced Salt Solution (HBSS) buffer with inhibitors at 37° C. for 10 minutes to prior imaging at the following concentrations: for phosphoinositide 3-kinase (PI3K), cells were treated 10 μM wortmannin (Tocris); and for phospholipase C (PLC), cells were treated with 10 μM U73122 (Tocris). Cells were removed from the incubator and allowed to come to thermal equilibrium before being imaged in HBSS buffer at room temperature.
(§2) Fluorescence Imaging, Optogenetic Activation, and Post-Processing. All epifluorescence imaging was performed on a customized Nikon Ti2-E microscope equipped with individual control over excitation (EX) and emission (EM) filters, a fast LED light source (Lumencor) with fluid-cooled EMCCD (Andor), motorized stage, and examined under a 40× or 100× oil immersion objective under live focus tracking. For RFP, excitation (EX) and emission (EM) filter combinations (maxima/bandwidth in nm) are indicated. Cells were imaged at 12-15 second intervals. Emission intensities of individual cells were background-subtracted before normalization to zero time point, when optogenetic activation began. In the optical setup, optogenetic activation of PhoDer was performed using an EX filter at 440/20 nm for 20-30 ms across whole fields of view. This replicated the progression of endogenous activation of GSDMD observed in LPS-stimulated RAW264.7 cells. […] Where applicable, inhibitors were treated at the indicated concentration for 15 minutes prior to imaging.
Fluctuation Analysis and Quantification. To automate the objective isolation and quantitation of calcium flares, a post-processing algorithm was developed based on principles and normalization scheme detailed in work on photochromic stochastic optical fluctuation imaging (pcSOFI) (Dedecker et al. (2012) Proc. Natl. Acad. Sci. USA 109: 10909-10914). Briefly, fluctuation caused by the flares generate high autocorrelation signals in time-averaged series and yield high contrast at locales of the greatest ion flux. To truly reflect the local flux change, it is then normalized to remove dependence on the number of biosensors reporting at the given location using a scheme detailed previously (Mo et al. (2017) Nat. Methods 14 (4): 427-434). Using Matlab, rolling-window mean and rolling-window autocorrelation values were calculated for each pixel over each entire fluorescence time course that contained possible flares. A heuristic approach to window size was taken and a range of window sizes were examined using examples where calcium flares were visually distinct prior to setting the window size for all analyses. All such fluctuation images were then verified manually against intensity time course to ensure bone fide flare detection; particularly strong and non-overlapping flares were chosen and added to calculate kinetic parameters. […]

The subject of test [3] is Hela cells. The experiment in a line: Optogenetic activation of PhoDer, membrane-targeted jRCaMP1b calcium flare imaging and fluctuation analysis. Conditions: for calcium response of mutants at other putative lipid-binding sites: charge-altering mutations; for pore opening/closing dynamics (automated flare quantification): PhoDer mutants in live Hela cells vs PhoDer. The protocol: Cloning. Cloning and subcloning were performed using the DH5a strain of E. coli. All mammalian constructs were cloned into the pcDNA3.0 vector with a modified multiple cloning site. Plasmids were generated as follows. Gasdermin D gene was obtained from Addgene. A diffusible optogenetic GSDMD, referred to herein as “PhoDer” and set forth in SEQ ID NO: 33, was constructed according to the reported domains structure by ligating three fragments into the pcDNA3.0 vector in one reaction via Gibson Assembly (New England BioLabs). For each fragment, PCR was specifically designed to create appropriate complementation. The jRCaMP1b gene, encoding a sensitive red protein calcium indicator, was obtained from Addgene. Membrane targeted calcium indicator jRCaMP1b was constructed by ligating a PCR fragment of the calcium indicator into the restriction enzyme sites BamHI and EcoRI in a modified pcDNA3.0 vector carrying a 5′ fragment encoding the N-terminal Lyn kinase localization sequence.
as §1, §2
Fluctuation Analysis and Quantification. To automate the objective isolation and quantitation of calcium flares, a post-processing algorithm was developed based on principles and normalization scheme detailed in work on photochromic stochastic optical fluctuation imaging (pcSOFI) (Dedecker et al. (2012) Proc. Natl. Acad. Sci. USA 109: 10909-10914). Briefly, fluctuation caused by the flares generate high autocorrelation signals in time-averaged series and yield high contrast at locales of the greatest ion flux. To truly reflect the local flux change, it is then normalized to remove dependence on the number of biosensors reporting at the given location using a scheme detailed previously (Mo et al. (2017) Nat. Methods 14 (4): 427-434). […]

With `COc1ccc2c(c1)CC[C@@H]1[C@@H]2CC[C@]2(C)[C@@H](NCCCCCCN3C(=O)C=CC3=O)CC[C@@H]12` [U73122], the IL-1β release result in test [1] is “enhanced”. Moreover, the “pixel-wise calcium fluctuations, local pore activity per locale” value in the test with Hela cells [2] (pretreated vs non-pretreated cells) is listed as “highest activity per locale”. For the same molecule, in the test with Hela cells [2] (pretreatment 10 μM), the “intracellular calcium progression after PhoDer activation” value is given as “steep, cumulative rise in intracellular calcium”.
Turning to `Cc1cc(C)c(S(=O)(=O)Nc2cccc(C(F)(F)F)c2)c(C)c1` [m-3m3FBS], in test [1], the IL-1β release result is reported as “did not limit LPS-stimulated IL-1β release”. Besides, the “calcium flare occurrence / calcium response with PI3K/PLC activators” value in the test with Hela cells [2] is on record as “inhibited flare occurrence for a short time”.
For 740 Y-P, in that order: “failed to elicit meaningful differences” and “failed to elicit meaningful differences”.
`COC[C@H]1OC(=O)c2coc3c2[C@@]1(C)C1=C(C3=O)[C@@H]2CCC(=O)[C@@]2(C)C[C@H]1OC(C)=O` [wortmannin]: the “spatial extent flares reached” value with Hela cells [2] (pretreatment 10 μM, n=27) is 12 μm.

B1: R7E/R10E/R11E: mutant at the well-conserved N-terminal region of GSDMD (protein, UniProt P57764 1-484, looked up, variant R7E R10E R11E)
Gasdermin-D: MGSAFEEVVEEVVQELDHGGEFIPVTSLQSSTGFQPYCLVVRKPSSSWFWKPRYKCVNLSIKDILEPDAAEPDVQRGRSFHFYDAMDGQIQGSVELAAPGQAKIAGGAAVSDSSSTSMNVYSLSVDPNTWQTLLHERHLRQPEHKVLQQLRSRGDNVYVVTEVLQTQKEVEVTRTHKREGSGRFSLPGATCLQGEGQGHLSQKKTVTIPSGSTLAFRVAQLVIDSDLDVLLFPDKKQRTFQPPATGHKRSTSEGAWPQLPSGLSMMRCLHNFLTDGVPAEGAFTEDFQGLRAEVETISKELELLDRELCQLLLEGLEGVLRDQLALRALEEALEQGQSLGPVEPLDGPAGAVLECLVLSSGMLVPELAIPVVYLLGALTMLSETQHKLLAEALESQTLLGPLELVGSLLEQSAPWQERSTMSLPPGLLGNSWGEGAPAWVLLDECGLELGEDTPHVCWEPQAQGRMCALYASLALLSGLSQEPH
As for B1, the “calcium response of mutants at other putative lipid-binding sites” value (shortened to “calcium response of mutants”) in the test with Hela cells [3] is reported as “much-reduced calcium magnitude”.

B2: R151E/R153E: mutant at another helical region of GSDMD N-terminal domain (protein, UniProt P57764 1-484, looked up, variant R151E R153E)
Gasdermin-D: B1 Gasdermin-D with E7R, E10R, E11R, R151E, R153E
Consider B2, for which, in the test on Hela cells [3], the “calcium response of mutants” value is recorded as “either encumbering or abrogating the calcium response”.

B3: R137E: mutant at another helical region of GSDMD N-terminal domain (protein, UniProt P57764 1-484, looked up, variant R137E)
Gasdermin-D: B1 Gasdermin-D with E7R, E10R, E11R, R137E
As for B3, the “calcium response of mutants” value in the test with Hela cells [3] is “either encumbering or abrogating the calcium response”.

B4: m3: PhoDer mutant R42Q/K43Q (SEQ ID NO:36) (protein)
chain: MGSAFERVVRRVVQELDHGGEFIPVTSLQSSTGFQPYCLVVQQPSSSWFWKPRYKCVNLSIKDILEPDAAEPDVQRGRSFHFYDAMDGQIQGSVELAAPGQAKIAGGAAVSDSSSTSMNVYSLSVDPNTWQTLLHERHLRQPEHKVLQQLRSRGDNVYVVTEVLQTQKEVEVTRTHKREGSGRFSLPGATCLQGEGQGHLSQKKTVTIPSGSTLAFRVAQLVIDSDLDVLLFPDKKQRTFQPPATGHKRSTSEGAWPQLPSGLSMMRCLHNGGGSVIPDYFKQSFPEGYSWERSMTYEDGGICIATNDITMEGDSFINKIHFKGTNFPPNGPVMQKRTVGWEASTEKMYERDGVLKGDVKMKLLLKGGGHYRCDYRTTYKVKQKPVKLPDYHFVDHRIEILSHDKDYNKVKLYEHAVARNSTDSMDELYKGGSGGMVSKGEETITSVIKPDMKNKLRMEGNVNGHAFVIEGEGSGKPFEGIQTIDLEVKEGAPLPFAYDILTTAFHYGNRVFTKYPRGGGVPAEGAFTEDFQGLRAEVETISKELELLDRELCQLLLEGLEGVLRDQLALRALEEALEQGQSLGPVEPLDGPAGAVLECLVLSSGMLVPELAIPVVYLLGALTMLSETQHKLLAEALESQTLLGPLELVGSLLEQSAPWQERSTMSLPPGLLGNSWGEGAPAWVLLDECGLELGEDTPHVCWEPQAQGRMCALYASLALLSGLSQEPH
With B4, the “pore opening/closing dynamics (automated flare quantification)” value (“pore opening/closing dynamics” for short) in the test on Hela cells [3] is “significantly reduced pore opening/closing dynamics; also recorded: significant changes in pore activity”.

B5: m5: PhoDer mutant R42Q/K43Q/K51Q/R53Q/K55Q (SEQ ID NO:38) (protein)
chain: B4 chain with K51Q, R53Q, K55Q
As for B5, the “pore opening/closing dynamics” value in the test on Hela cells [3] was “significantly reduced pore opening/closing dynamics; also recorded: significant changes in pore activity”.

B6: m6: PhoDer mutant R42E/K43E/K51E/R53E/K55E (SEQ ID NO: 39) (protein)
chain: B4 chain with Q42E, Q43E, K51E, R53E, K55E
With B6, the “pore opening/closing dynamics” value in the test with Hela cells [3] is given as “significantly reduced pore opening/closing dynamics”.

B7: m4: PhoDer mutant R42E/K43E (SEQ ID NO:37) (protein)
chain: B4 chain with Q42E, Q43E
With B7, in the test with Hela cells [3], the “pore opening/closing dynamics” value is recorded as “significantly reduced pore opening/closing dynamics”.
